Assay results taken from patent US20220008368A1, “METHODS AND COMPOSITIONS RELATED TO TARGETING FFAR2 AND ILC3 POPULATIONS FOR THE TREATMENT OF A GASTROINTESTINAL DISEASE” (PRESIDENT AND FELLOWS OF HARVARD COLLEGE, priority 2018, published 2022).
Like-named read-outs stand apart in the source and are kept apart here. *1 amine or outer side, *2 acyl side, *3 side chain or, on linkers, in order; H or OH if unused. Where a SMILES comes first, the peptide text is derived from it. Bridges are numbered along the chain shown (N, C = ends). [ ]: non-standard residue; d: D form. X1 = CC(=O)NC(C(=O)OC(C(C)C)C(N[*:1])C(=O)[*:2])C(O)C(C)C; PhLac = O=C(O)[CH](O)Cc1ccccc1; NMeT = CN[CH](C(=O)O)[CH](C)O; NMeA = CN[CH](C)C(=O)O; NMeDha = C=C(NC)C(=O)O

Assays:
sorted colonic ILC3s [1] = test: Flow analysis of intracellular signaling (AKT, p38, ERK, STAT3 phosphorylation) in sorted colonic ILC3s from WT mice; assay type: cell-based, mouse
Description: For analysis of intracellular signaling in ILC3s (Ibiza et al., 2016), sorted colonic ILC3s were rested for 2 hours in RPMI at 37° C.
AKT and STAT3 inhibition. Sorted colonic ILC3s were rested for 2 hours in RPMI at 37° C. For analysis of STAT3 phosphorylation, cells were incubated with […] AKT inhibitor VIII (VIII, Sigma-Aldrich) (Ibiza et al., 2016) or vehicle as a control (DMSO) for 1h at 37° C. before stimulation with the Ffar2 agonist (10 μM/ml dissolved in water, pH 7.4). To determine Il22 expression levels, cells were incubated with 10 μM AKT inhibitor VIII, 10 μM STAT3 inhibitor VI (S3I, Sigma-Aldrich) (Ibiza et al., 2016) or vehicle during overnight stimulation with Ffar2 agonist at 37° C.

sorted colonic ILC3s [2] = test: Il22 mRNA expression in sorted colonic ILC3s (qRT-PCR); assay type: cell-based, mouse; conditions: for Il22 expression upon Ffar2 activation with the Ffar2 agonist: overnight with Ffar2 agonist, AKT inhibitor VIII 10 μM, STAT3 inhibitor 10 μM
Description: RNA isolation and real-time quantitative PCR (qRT-PCR). For analysis of sorted colonic immune cell populations including ILC subsets and colonic ILC3s, RNA was isolated using the RNeasy Micro Kit (Qiagen) or RNeasy Mini Kit (Qiagen) according to the manufacturer's protocol. For analysis of colonic epithelial cells or colon tissues, cells or tissues were homogenized directly into Qiazol (Qiagen), and RNA was isolated via chloroform extraction. The quantity and quality of RNA was determined using a NanoDrop (Thermo Scientific). […] Quantitative real-time PCR was carried out on cDNA with SYBR FAST Universal qPCR Master Mix (KAPA Biosystems). Reactions were run on a Stratagene Mx3005P machine (Agilent Technologies). The expression of individual genes was normalized to housekeeping gene β-actin expression on the base of the ΔΔCt algorithm. Some results are shown as a fold induction relative to expression levels in colonic epithelial cells as indicated. AKT and STAT3 inhibition.

colonic ILC3s [3] = test: Colonic RORγt+ ILC3s in germ-free WT mice fed Ffar2 agonist or sodium acetate; assay type: in vivo, mouse; conditions: Ffar2 agonist 700 μM or sodium acetate 150 mM in drinking water, 1-2 weeks
Description: GPR43 agonist. […] SCFA intervention. […] WT mice received sodium chloride (150 mM). […] Flow cytometry.

sorted colonic ILC3s [4] = test: In vitro BrdU incorporation in sorted colonic ILC3s; assay type: cell-based, mouse; conditions: acetate 10 mM or propionate 10 mM with BrdU 10 μM overnight
colonic ILC3s [5] = conditions: WT mice, drinking water 2 weeks; acetate 150 mM, propionate 150 mM, butyrate 100 mM; control sodium chloride
Description: SCFA intervention. […] WT mice received sodium chloride (150 mM). […] Drinking water solutions were freshly prepared and changed every 5 days.
Isolation of colonic epithelial cells and immune cells. Colons were dissected and fat and blood vessels were removed. Colons were cut open longitudinally and washed with PBS to remove feces and debris, then incubated in PBS containing 5 mM EDTA, 0.145 mg/ml Dithiothreitol (Sigma-Aldrich), 3% FBS and 1% penicillin/streptomycin (P/S) for 15 min at 37° C. for 2 cycles. After being vortexed for 15s, the dissociated cells were collected as colonic epithelial cells. For the isolation of lamina propria immune cells, the remaining colonic tissues were washed twice in PBS, cut into 1 mm in length, and digested in RPMI 1640 containing 0.5 mg/ml collagenase D (Roche), 0.01 mg/ml DNase I (Roche), and 0.5 mg/ml Dispase (Stem Cell Technologies) for 30 min at 37° C. on a shaking platform. The digested tissues were passed through 70 μm strainers after being vigorously vortexed for 15s. Then, colonic immune cells were collected and resuspended in PBS with 1% fetal bovine serum and 1% penicillin-streptomycin solution (Corning) for flow cytometry analysis, FACSAria sorting or RNA extraction.
Flow cytometry. Single-cell suspensions were stained with a combination of fluorescently conjugated monoclonal antibodies. CD16/32 antibody (93; BioLegend) was used to block the non-specific binding to Fc receptors before surface staining. Cells were stained with Fixable yellow dead cell stain kit (Invitrogen) for the detection of live/dead cells before staining of the cell surface. All antibodies were purchased from BioLegend unless otherwise specified. For surface marker staining, antibodies to the following mouse proteins were used: CD45 (30-F11), CD90.2 (53-2.1), lineage markers (17A2/RB6-8C5/RA3-6B2/Ter-119/M1/70), CCR6 (29-21.17), NKp46 (29A1.4), CD11b (M1/70), CD11c (N418), Gr-1 (RB6-8C5), MHC class II (M5/114.15.2), NK1.1 (PK136), KLRG1 (2F1), CD3c (145-2C11), CD4 (RM4.5). […]

Ffar2 = target: T1, Ffar2 (Homo sapiens, UniProt O15552); conditions: cited from earlier work; for agonism of Ffar2 among SCFAs: compared among acetate, propionate and butyrate
T1 sequence (O15552 1-330): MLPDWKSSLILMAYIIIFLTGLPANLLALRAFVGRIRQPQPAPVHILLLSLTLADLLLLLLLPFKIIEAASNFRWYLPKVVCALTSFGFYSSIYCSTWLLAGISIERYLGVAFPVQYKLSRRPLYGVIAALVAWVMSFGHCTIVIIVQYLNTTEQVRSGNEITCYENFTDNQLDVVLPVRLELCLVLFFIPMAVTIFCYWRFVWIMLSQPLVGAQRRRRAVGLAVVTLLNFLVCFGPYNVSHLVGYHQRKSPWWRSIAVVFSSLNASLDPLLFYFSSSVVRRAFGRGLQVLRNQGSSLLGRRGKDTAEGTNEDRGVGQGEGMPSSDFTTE

Peyer's patch ILC3s = conditions: cited from earlier work
C57BL/6 Rag2−/− mice = test: T cell-transfer colitis model; assay type: in vivo, mouse; conditions: Ffar2 agonist or sodium propionate for 6 weeks
Description: GPR43 agonist. […] SCFA intervention. […] WT mice received sodium chloride (150 mM). […] Histology. Colons were cleaned with PBS prior to fixation in 4% PFA and then processed by routine paraffin embedding, sectioning and H&E staining. Colitis scores were determined by a pathologist (J. N. G.), who was blinded to the experimental parameters. Each of the four histologic parameters was scored as absent (0), mild (1), moderate (2), or severe (3): mononuclear cell infiltration, polymorphonuclear cell infiltration, epithelial hyperplasia, and epithelial injury. The scores for the parameters were summed to generate the cumulative histologic colitis score as previously described^60, 61. For the DSS-induced model, cumulative histologic scores were also quantified as to the percentage involvement by the disease process: […] (3) 30-50%; (4) >50% and presented as histologic colitis scores^62 as follows: (cumulative score*involvement)+cumulative score. T cell-transfer colitis model. Splenic T cells (CD3^+CD4^+CD25^-CD45RB^hi) were sorted from C57BL/6J WT mice and injected i.p. into C57BL/6J Rag2^-/- mice (5×10^5 cells/mouse). […] Mice were monitored weekly for weight loss and morbidity for 6-8 weeks as per the protocol's experimental endpoint guidelines and sacrificed at the terminal time point of 6 weeks post injection of splenic […].

[6] = WT ILC3s, propionate 10 mM, 1 h

## O=c1[nH]c2ccccc2n1C1CCN(Cc2ccc(-c3nc4cc5[nH]cnc5cc4nc3-c3ccccc3)cc2)CC1 [AKT inhibitor (VIII)]
Sorted colonic ILC3s [1]; AKT inhibitor VIII 1 h before stimulation with Ffar2 agonist
  STAT3 activation upon Ffar2 activation with the Ffar2 agonist: impaired
Sorted colonic ILC3s [2]; PTX 500 ng/mL, YM-254890 1 mM
  Il22 expression upon Ffar2 activation with the Ffar2 agonist: decreased 11-22, but to a lesser extent

## Cc1ccc(S(=O)(=O)OCC(=O)Nc2ccc(C(=O)O)c(O)c2)cc1 [STAT3 inhibitor (S31)]
Sorted colonic ILC3s [2]; PTX 500 ng/mL, YM-254890 1 mM
  Il22 expression upon Ffar2 activation with the Ffar2 agonist: impaired
Sorted colonic ILC3s [2]; PTX 500 ng/mL, YM-254890 1 mM, listed as STAT3 inhibitor
  Il22 expression upon Ffar2 activation with the Ffar2 agonist: decreased

## C=C1C(=O)NC(C)C(=O)N(C)C(C)C(=O)NC(C(OC(=O)C(NC(C)=O)C(O)C(C)C)C(C)C)C(=O)N(C)C(C(C)OC)C(=O)OC(C)C(NC(C)=O)C(=O)OC(Cc2ccccc2)C(=O)N1C (stereo not drawn) [YM-254890] (Ac-T[PhLac][NMeDha]A[NMeA][X1][NMeT](Me); ester 1-C; configuration not given here)
Sorted colonic ILC3s [2]; PTX 500 ng/mL, YM-254890 1 mM
  Il22 expression upon Ffar2 activation with the Ffar2 agonist: abolished
Sorted colonic ILC3s [2]; propionate 10 mM overnight, PTX 500 ng/mL, YM-254890 1 mM, ERK inhibitor 10 μM
  Il22 expression upon activation with propionate: decreased IL22 transcripts to a lesser extent

## CC(=O)[O-].[Na+] [sodium acetate]
Colonic ILC3s [3]
  colonic ILC3 numbers: increased
Sorted colonic ILC3s [2]
  Il22 mRNA expression in sorted ILC3s cultured with ligand: did not alter
Sorted colonic ILC3s [4]
  percentage of BrdU+ ILC3s: increased
Colonic ILC3s [5]
  colonic ILC3 frequency and number: increased
Ffar2
  agonism of Ffar2 among SCFAs: far more potent activators of Ffar2

## CCCC(=O)[O-].[Na+] [sodium butyrate]
Colonic ILC3s [5]
  colonic ILC3 frequency and number: did not change
Peyer's patch ILC3s
  effect on Peyer's patch ILC3s: suppress

## CCC(=O)[O-].[Na+] [sodium propionate]
C57BL/6 Rag2−/− mice
  colitis (histologic colitis score): ameliorated colitis similar to the effect of sodium propionate
Sorted colonic ILC3s [1]; WT ILC3s, propionate 10 mM, 30 min
  phosphorylation of AKT, p38, ERK and STAT3: did not induce
Sorted colonic ILC3s [1]; [6]
  pSTAT3+ ILC3s: did increase
  share of ILC3s that were pSTAT3+: 1%-1.5%
Sorted colonic ILC3s [1]; WT ILC3s, propionate 10 mM, 1 h compared with shorter time
  percentage of pERK+ ILC3s: comparable
Sorted colonic ILC3s [1]; WT ILC3s, propionate 10 mM, 1 h versus 30 min
  pERK level: did induce a higher pERK
Sorted colonic ILC3s [2]; acetate 10 mM, propionate 10 mM or Ffar2 agonist 10 mM
  Il22 mRNA expression in sorted ILC3s cultured with ligand: to a lesser extent, propionate increased
Sorted colonic ILC3s [4]
  percentage of BrdU+ ILC3s: did not
Colonic ILC3s [5]
  colonic ILC3 frequency and number: increased
Ffar2
  potency for Ffar2 compared with the synthetic Ffar2 agonist: lower potency
  agonism of Ffar2 among SCFAs: far more potent activators of Ffar2
